Molecular target: T1, glucokinase (GK), residues 12-465 of the human enzyme (Homo sapiens, UniProt P35557)
T1 construct: I.D. No. 1 corresponds to residues 12-465 of glucokinase; made in house; host or cells: E. coli DH10b-Tlr
T1 sequence (P35557 with tags, fused parts or gaps isoform P35557-2): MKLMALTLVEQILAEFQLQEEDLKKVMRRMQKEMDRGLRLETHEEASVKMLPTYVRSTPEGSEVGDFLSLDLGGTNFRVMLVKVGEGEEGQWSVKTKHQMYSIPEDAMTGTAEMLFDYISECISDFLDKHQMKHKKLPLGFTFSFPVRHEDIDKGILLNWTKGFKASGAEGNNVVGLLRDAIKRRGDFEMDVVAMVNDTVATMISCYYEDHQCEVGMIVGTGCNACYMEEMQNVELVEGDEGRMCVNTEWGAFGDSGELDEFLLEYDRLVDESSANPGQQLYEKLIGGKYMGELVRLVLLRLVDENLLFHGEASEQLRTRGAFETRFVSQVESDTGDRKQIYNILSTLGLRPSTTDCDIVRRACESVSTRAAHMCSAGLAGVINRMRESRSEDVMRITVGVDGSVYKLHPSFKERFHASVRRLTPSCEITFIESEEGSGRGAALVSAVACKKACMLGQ
Assay: Enzymatic glucokinase activity assay (KinaseGlo luminescence, ATP consumption)
Type: biochemical
Conditions: 5 μM ATP, 5 mM Glucose; for EC50: GK activation, Kact = concentration giving 50% of the maximal increase in GK activity, read-out: pKact; for Emax: calculated maximal gain in GK enzyme activity at a saturating concentration of the compound, read-out: % ACTmax
Excerpt: The activity of compounds as glucokinase activators may be assayed in vitro, in vivo or in a cell line. Provided below is an enzymatic glucokinase activity assay.
Purified glucokinase may be obtained as follows. DNA encoding residues 12-465 of the full-length sequence of the human enzyme may be amplified by PCR and cloned into the HindIII and EcoRI sites of pFLAG-CTC (Sigma). SEQ. I.D. No. 1 corresponds to residues 12-465 of glucokinase.
The expression of recombinant glucokinase protein may be carried out by transformation and growth of DH10b-Tlr E. coli cells incorporating the (pFLAG-CTC) plasmid in LB media. Protein expression can be induced in this system by the addition of IPTG to the culture medium.
Recombinant protein may be isolated from cellular extracts by passage over Sepharose Q Fast Flow resin (Pharmacia). This partially purified GK extract may then be further purified by a second passage over Poros HQ 10 (Applied Biosystems). The purity of GK may be determined on denaturing SDS-PAGE gel. Purified GK may then be concentrated to a final concentration of 20.0 mg/ml. After flash freezing in liquid nitrogen, the proteins can be stored at −78° C. in a buffer containing 25 mM TRIS-HCl pH 7.6, 50 mM NaCl, and 0.5 mM TCEP.
The activation properties of compounds for GK may be determined using a black 384-well-plate format under the following reaction conditions: 25 mM Hepes pH 7.2, 25 mM NaCl, 10 mM MgCl2, 0.01% Brij35, 1 mM DTT, 5 μM ATP, 5 mM Glucose 2% DMSO. The amount of ATP consumed may be determined quantitatively by addition of equal volume of luciferase reagent (luciferase+beetle luciferin—KinaseGlo Luminescent Kinase Assay kit from Promega). The luminescence intensity may be measured by using the Analyst HT from LJL Biosystems.
The assay reaction may be initiated as follows: 4 μl of substrate mixture (12.5 μM ATP and 12.5 mM Glucose) was added to each well of the plate, followed by the addition of 2 μl of activator (2 fold serial dilutions for 11 data points for each activator) containing 10% DMSO. 4 μL of 1.25 nM GK solution may be added to initiate the reaction. The reaction mixture may then be incubated at room temperature for 60 min, and quenched and developed by addition of 10 μL of luciferase reagent. Luminescence intensities of the resulting reaction mixtures may be measured after a 10 min incubation at room temperature. The luminescence intensity may be measured by using the Analyst HT from LJL Biosystems.
pKact and % ACTmax values may be calculated by non-linear curve fitting of the compound concentrations and luminescence intensities to a standard inhibition/activation equation.

SMILES | EC50 | Emax
COC(=O)c1cc(C)c(S(=O)(=O)N2CCN([C@@H](CC3CCCCC3)C(=O)Nc3nccs3)C(=O)C2)s1 [Example 157, (S)-methyl 5-(4-(3-cyclohexyl-1-oxo-1-(thiazol-2-ylamino)propan-2-yl)-3-oxopiperazin-1-ylsulfonyl)-4-methylthiophene-2-carboxylate] | 1580 to 2510 nM | ≤ 74%
O=C(Nc1nccs1)[C@H](CC1CCCCC1)N1CCN(C(=S)Nc2cccc3ccccc23)CC1=O [Example 80, (S)-3-cyclohexyl-2-(4-(naphthalen-1-ylcarbamothioyl)-2-oxopiperazin-1-yl)-N-(thiazol-2-yl)propanamide] | 1580 to 2510 nM | 97.1 to 107%
O=C(Nc1nccs1)[C@H](CC1CCCCC1)N1CCN(S(=O)(=O)c2cnc(Cl)c(Br)c2)CC1=O [Example 217, (S)-2-(4-(5-bromo-6-chloropyridin-3-ylsulfonyl)-2-oxopiperazin-1-yl)-3-cyclohexyl-N-(thiazol-2-yl)propanamide] | 1580 to 2510 nM | ≤ 74%
COc1cccc(C[C@@H](C(=O)Nc2nccs2)N2CCN(S(=O)(=O)C3CC3)CC2=O)c1 [Example 4, (S)-2-(4-(cyclopropylsulfonyl)-2-oxopiperazin-1-yl)-3-(3-methoxyphenyl)-N-(thiazol-2-yl)propanamide] | 1580 to 2510 nM | 74.1 to 97%
Cc1cc(S(=O)(=O)N2CCN([C@@H](CC3CCCCC3)C(=O)Nc3nccs3)C(=O)C2)c(C)s1 [Example 180, (S)-3-cyclohexyl-2-(4-(2,5-dimethylthiophen-3-ylsulfonyl)-2-oxopiperazin-1-yl)-N-(thiazol-2-yl)propanamide] | ≤ 631 nM | 108 to 119%
Cc1noc(C)c1S(=O)(=O)N1CCN([C@@H](CC2CCCCC2)C(=O)Nc2nccs2)C(=O)C1 [Example 173, (S)-3-cyclohexyl-2-(4-(3,5-dimethylisoxazol-4-ylsulfonyl)-2-oxopiperazin-1-yl)-N-(thiazol-2-yl)propanamide] | ≥ 3160 nM | 74.1 to 97%
O=C(Nc1nccs1)[C@H](CC1CCCCC1)N1CCN(C(=S)Nc2ccc(Cl)c(Cl)c2)CC1=O [Example 87, (S)-3-cyclohexyl-2-(4-(3,4-dichlorophenylcarbamothioyl)-2-oxopiperazin-1-yl)-N-(thiazol-2-yl)propanamide] | ≥ 3160 nM | 74.1 to 97%
O=C(Nc1ncc(Cl)s1)C(CC1CCOCC1)N1CCN(S(=O)(=O)c2cccs2)CC1=O (centres unmarked) [Example 36, N-(5-chlorothiazol-2-yl)-2-(2-oxo-4-(thiophen-2-ylsulfonyl)piperazin-1-yl)-3-(tetrahydro-2H-pyran-4-yl)propanamide] | ≤ 631 nM | 108 to 119%
O=C(Nc1nccs1)[C@H](CC1CCCCC1)N1CCN(C(=O)Nc2ccc(Cl)cc2)CC1=O [Example 137, (S)-N-(4-chlorophenyl)-4-(3-cyclohexyl-1-oxo-1-(thiazol-2-ylamino)propan-2-yl)-3-oxopiperazine-1-carboxamide] | ≥ 3160 nM | ≤ 74%
CC(C)S(=O)(=O)N1CCN([C@@H](CC2CCCCC2)C(=O)Nc2nccs2)C(=O)C1 [Example 59, (S)-3-cyclohexyl-2-(4-(isopropylsulfonyl)-2-oxopiperazin-1-yl)-N-(thiazol-2-yl)propanamide] | 1580 to 2510 nM | ≥ 119%
O=C(Nc1ncc(F)s1)[C@H](CC1CCOCC1)N1CCN(S(=O)(=O)c2cccc(F)c2)CC1=O [Example 152, (S)-2-(4-(3-fluorophenylsulfonyl)-2-oxopiperazin-1-yl)-N-(5-fluorothiazol-2-yl)-3-(tetrahydro-2H-pyran-4-yl)propanamide] | ≤ 631 nM | ≥ 119%
O=C(Nc1nccs1)[C@H](CC1CCCCC1)N1CCN(C(=S)NCc2ccco2)CC1=O [Example 115, (S)-3-cyclohexyl-2-(4-(furan-2-ylmethylcarbamothioyl)-2-oxopiperazin-1-yl)-N-(thiazol-2-yl)propanamide] | 794 to 1260 nM | 97.1 to 107%
O=C(Nc1nccs1)[C@H](CC1CCCCC1)N1CCN(S(=O)(=O)c2ccc(F)c(F)c2F)CC1=O [Example 183, (S)-3-cyclohexyl-2-(2-oxo-4-(2,3,4-trifluorophenylsulfonyl)piperazin-1-yl)-N-(thiazol-2-yl)propanamide] | 794 to 1260 nM | ≥ 119%
Cc1ccccc1S(=O)(=O)N1CCN([C@@H](CC2CCCCC2)C(=O)Nc2nccs2)C(=O)C1 [Example 218, (S)-3-cyclohexyl-2-(2-oxo-4-(o-tolylsulfonyl)piperazin-1-yl)-N-(thiazol-2-yl)propanamide] | 794 to 1260 nM | 108 to 119%
O=C(Nc1nccs1)[C@H](CC1CCCCC1)N1CCN(S(=O)(=O)c2cccc3nsnc23)CC1=O [Example 171, (S)-2-(4-(benzo[c][1,2,5]thiadiazol-4-ylsulfonyl)-2-oxopiperazin-1-yl)-3-cyclohexyl-N-(thiazol-2-yl)propanamide] | 794 to 1260 nM | 97.1 to 107%
O=C(Nc1nccs1)[C@H](CC1CCCCC1)N1CCN(S(=O)(=O)c2ccc(Cl)c(Cl)c2Cl)CC1=O [Example 220, (S)-3-cyclohexyl-2-(2-oxo-4-(2,3,4-trichlorophenylsulfonyl)piperazin-1-yl)-N-(thiazol-2-yl)propanamide] | 794 to 1260 nM | ≤ 74%
Cc1ccc(S(=O)(=O)N2CCN([C@@H](CC3CCCCC3)C(=O)Nc3nccs3)C(=O)C2)cc1F [Example 189, (S)-3-cyclohexyl-2-(4-(3-fluoro-4-methylphenylsulfonyl)-2-oxopiperazin-1-yl)-N-(thiazol-2-yl)propanamide] | ≤ 631 nM | 108 to 119%
O=C(Nc1nccs1)[C@H](CC1CCCCC1)N1CCN(S(=O)(=O)c2ccc(Cl)cc2)CC1=O [Example 43, (S)-2-(4-(4-chlorophenylsulfonyl)-2-oxopiperazin-1-yl)-3-cyclohexyl-N-(thiazol-2-yl)propanamide] | 794 to 1260 nM | 74.1 to 97%
O=C(Nc1ncc(Cl)s1)[C@H](CC1CCOCC1)N1CCN(S(=O)(=O)c2ccc(F)cc2)CC1=O [Example 34, (S)-N-(5-chlorothiazol-2-yl)-2-(4-(4-fluorophenylsulfonyl)-2-oxopiperazin-1-yl)-3-(tetrahydro-2H-pyran-4-yl)propanamide] | 1580 to 2510 nM | 97.1 to 107%
O=C(Nc1nccs1)[C@H](CC1CCCCC1)N1CCN(C(=O)Nc2ccc3sccc3c2)CC1=O [Example 144, (S)-N-(benzo[b]thiophen-5-yl)-4-(3-cyclohexyl-1-oxo-1-(thiazol-2-ylamino)propan-2-yl)-3-oxopiperazine-1-carboxamide] | ≥ 3160 nM | ≤ 74%
O=C(Nc1nccs1)[C@H](CC1CCCCC1)N1CCN(C(=S)Nc2ccc(Oc3ccccc3)cc2)CC1=O [Example 127, (S)-3-cyclohexyl-2-(2-oxo-4-(4-phenoxyphenylcarbamothioyl)piperazin-1-yl)-N-(thiazol-2-yl)propanamide] | 1580 to 2510 nM | ≤ 74%
O=C(Nc1nccs1)[C@H](CC1CCCCC1)N1CCN(C(=O)Nc2ccc3c(c2)OCCO3)CC1=O [Example 145, (S)-4-(3-cyclohexyl-1-oxo-1-(thiazol-2-ylamino)propan-2-yl)-N-(2,3-dihydrobenzo[b][1,4]dioxin-6-yl)-3-oxopiperazine-1-carboxamide] | ≥ 3160 nM | 74.1 to 97%
